# Literature values as cited in patent publication US20250339514A1, “SINGLE-AND MULTI-EPITOPE PEPTIDE AND MRNA VACCINES TO GENERATE TOLEROGENIC EFFECTS FOR ALLERGIC AND AUTOIMMUNE DISEASE BY TARGETING LIVER SINUSOIDAL ENDOTHELIAL CELLS” (The Regents of the University of California, priority 2022, published 2025).
# Read-outs that look alike come from different tables or passages of the source.
# Assays:
# I-Ek = conditions: cited from earlier work; for SYFPEITHI score: I-Ek; for Score (antigenic score predicted): MHC II H2-E^k
# T cell responses = system: T cell responses; design: Immunopositivity of predicted CTL epitope / Immunopositivity of MHC II peptide: scale not given here; conditions: cited from earlier work; for Immunopositivity of MHC II peptide: MHC II peptides, Table 60; for Immunopositivity of predicted CTL epitope: class I MHC peptides, Table 59
# [1] = system: class I MHC K, D, and L loci; conditions: cited from earlier work; for predicted binding to the H2-Ld locus: SYFPEITHI and BIMAS
# [2] = H2 locus K, haplotype d (9-mer)
# [3] = H2 locus D, haplotype b (9-mer)
# [4] = H2 locus K, haplotype k (9-mer)
substance,measurement,setting,value
"LEPLGLVEEGAKTAP [AAV8-VP3 aa 126-140, reference compound]",SYFPEITHI score,I-Ek,28
same,Th1 response,T cell responses; C3H mice,strong H2k MHC II-restricted Th1 response
SEQ ID NO: 1174 (LEPLGLVEEGAKTAP; listed as Arachis hypogaea),Score (antigenic score predicted),I-Ek,28
same,Immunopositivity of MHC II peptide,T cell responses,LEPLGLVEEGAKTAP^b
SEQ ID NO: 1152 (GYVSGWGRVD; listed as Arachis hypogaea),Immunopositivity of predicted CTL epitope,T cell responses,GYVSGWGRV^d
same,BIM score predicted using the BIMAS program,[1]; [2],1440
same,SYF score predicted using the SYFPEITHI program,[1]; [2],22
SEQ ID NO: 1134 (EYGIVADNLD; listed as Arachis hypogaea),Immunopositivity of predicted CTL epitope,T cell responses,EYGIVADNL^d
same,BIM score predicted using the BIMAS program,[1]; [2],2400
same,SYF score predicted using the SYFPEITHI program,[1]; [2],23
"QPARKRLNF [AAV8 capsid aa 166-174, reference compound]",predicted binding to the H2-Ld locus,[1],high-scoring
SEQ ID NO: 1179 (YTKVSRYVNWIEKEKT; listed as Arachis hypogaea),Score (antigenic score predicted),I-Ek,22
"NSYVTPICIADKEYT [hF.IX aa 328-342, reference compound]",SYFPEITHI score,I-Ek,24
"YTKVSRYVNWIKEKT [hF.IX aa 444-460, reference compound]",SYFPEITHI score,I-Ek,22
SEQ ID NO: 1124 (TADVNTQGV; listed as Arachis hypogaea),Immunopositivity of predicted CTL epitope,T cell responses,TADVNTQGV^e
same,BIM score predicted using the BIMAS program,[1]; [3],3.4
same,SYF score predicted using the SYFPEITHI program,[1]; [3],23
SEQ ID NO: 1170 (QVSVEIEWELQKENS; listed as Arachis hypogaea),Score (antigenic score predicted),I-Ek,22
same,Immunopositivity of MHC II peptide,T cell responses,QVSVEIEWELQKENS^b
SEQ ID NO: 1161 (LDHENANKI; listed as Arachis hypogaea),Immunopositivity of predicted CTL epitope,T cell responses,LDHENANKI^e
same,BIM score predicted using the BIMAS program,[1]; [3],240
same,SYF score predicted using the SYFPEITHI program,[1]; [3],23
SEQ ID NO: 1140 (LDRLMNPLI; listed as Arachis hypogaea),Immunopositivity of predicted CTL epitope,T cell responses,LDRLMNPLI^e
same,BIM score predicted using the BIMAS program,[1]; [4],100
same,SYF score predicted using the SYFPEITHI program,[1]; [4],20
SEQ ID NO: 1151 (KYNHDIALL; listed as Arachis hypogaea),Immunopositivity of predicted CTL epitope,T cell responses,KYNHDIALL^c
same,BIM score predicted using the BIMAS program,[1]; [2],3456
same,SYF score predicted using the SYFPEITHI program,[1]; [2],24
SEQ ID NO: 1133 (KYLGPFNGL; listed as Arachis hypogaea),Immunopositivity of predicted CTL epitope,T cell responses,KYLGPFNGL^c
same,BIM score predicted using the BIMAS program,[1]; [2],6912
same,SYF score predicted using the SYFPEITHI program,[1]; [2],27
SEQ ID NO: 1141 (EEIKTTNPV; listed as Arachis hypogaea),Immunopositivity of predicted CTL epitope,T cell responses,EEIKTTNPV^e
same,BIM score predicted using the BIMAS program,[1]; [4],100
same,SYF score predicted using the SYFPEITHI program,[1]; [4],20
SEQ ID NO: 1171 (GVLIFGKQSEKTNV; listed as Arachis hypogaea),Score (antigenic score predicted),I-Ek,22
SEQ ID NO: 1115 (QYGSVSTNL; listed as Arachis hypogaea),Immunopositivity of predicted CTL epitope,T cell responses,QYGSVSTNL^c
same,BIM score predicted using the BIMAS program,[1]; [2],4147
same,SYF score predicted using the SYFPEITHI program,[1]; [2],27
"VPQYGYLTL [AAV2 capsid aa 170-178, reference compound]",predicted binding to the H2-Ld locus,[1],high-scoring
SEQ ID NO: 1122 (EEIRTTNPV; listed as Arachis hypogaea),Immunopositivity of predicted CTL epitope,T cell responses,EEIRTTNPY^e
same,BIM score predicted using the BIMAS program,[1]; [4],100
same,SYF score predicted using the SYFPEITHI program,[1]; [4],20
SEQ ID NO: 1121 (LDRLMNPLI; listed as Arachis hypogaea),Immunopositivity of predicted CTL epitope,T cell responses,LDRLMNPLI^e
same,SYF score predicted using the SYFPEITHI program,[1]; [4],20
SEQ ID NO: 1160 (GSIVNEKWID; listed as Arachis hypogaea),Immunopositivity of predicted CTL epitope,T cell responses,GSIVNEKWI^d
same,BIM score predicted using the BIMAS program,[1]; [3],936
same,SYF score predicted using the SYFPEITHI program,[1]; [3],26
SEQ ID NO: 1180 (NKWCSCTEGYRLAE; listed as Arachis hypogaea),Score (antigenic score predicted),I-Ek,22
